{"source": "patent US20260315604A1", "about": "“OTUB1 Small-Molecule Binders and OTUB1-recruiting Deubiquitinase-targeting Chimeras (DUBTACs)” (ICAHN SCHOOL OF MEDICINE AT MOUNT SINAI, priority 2023, published 2026)", "data": [{"molecular_target": "T1, Human OTUB1 wild-type (Homo sapiens, UniProt Q96FW1)", "T1 construct": "His tag (N); made in house; host or cells: E. coli BL21-CodonPlus (DE3)-RIPIL", "T1 sequence (Q96FW1 whole entry)": "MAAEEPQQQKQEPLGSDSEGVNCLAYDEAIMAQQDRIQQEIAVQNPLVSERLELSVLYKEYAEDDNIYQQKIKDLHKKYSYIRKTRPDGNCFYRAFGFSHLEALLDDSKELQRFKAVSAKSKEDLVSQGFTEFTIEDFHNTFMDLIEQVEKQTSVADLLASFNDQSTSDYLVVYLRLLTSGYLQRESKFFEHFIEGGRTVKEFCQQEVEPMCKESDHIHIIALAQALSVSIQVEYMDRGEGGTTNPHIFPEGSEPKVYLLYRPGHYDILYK", "assay": "Covalent modification of OTUB1 (adduct formation), mass spectrometry-based assay (OTUB1 covalent binders; selected CFTR or cGAS based bivalent compounds)", "type": "binding", "details": "covalent adduct formation with OTUB1 protein", "summary_of_the_method": "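His-tagged human OTUB1 (10 μM), E. coli-expressed, incubated with compound (2500 μM) in 50 mM Tris-HCl pH 7.5, 150 mM NaCl, 0.5 mM TCEP for 1 h at room temperature. Adduct detected by intact-protein LC/ESI-TOF mass spectrometry after buffer exchange; duplicates.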", "units": {"% of OTUB1 modified": "%"}, "values": [{"smiles": "CN(C)CC#CC(=O)N1CC(NC(=O)c2cc3c(s2)CCCC3)C1", "note": "[XS224-158, N-(1-(4-(dimethylamino)but-2-ynoyl)azetidin-3-yl)-4,5,6,7-tetrahydrobenzo[b]thiophene-2-carboxamide]", "% of OTUB1 modified": 92}, {"smiles": "Cc1ccc(C(=O)NC2CN(C(=O)/C=C/CN(C)C)C2)s1", "note": "[XS190-9, (E)-N-(1-(4-(dimethylamino)but-2-enoyl)azetidin-3-yl)-5-methylthiophene-2-carboxamide]", "% of OTUB1 modified": 38}, {"smiles": "Cc1ccc(NC(=O)C2CN(C(=O)C#CC(C)(C)N(C)C)C2)s1", "note": "[XS224-111, 1-(4-(dimethylamino)-4-methylpent-2-ynoyl)-N-(5-methylthiophen-2-yl)azetidine-3-carboxamide]", "% of OTUB1 modified": 53}, {"smiles": "Cc1ccc(C(=O)NC2CN(C(=O)C#CCN(C)C)C2)s1", "note": "[XS224-150, N-(1-(4-(dimethylamino)but-2-ynoyl)azetidin-3-yl)-5-methylthiophene-2-carboxamide]", "% of OTUB1 modified": 73}, {"smiles": "Cc1ccc(C(=O)N2CCC3(CN(C(=O)/C=C/CN(C)C)C3)C2)s1", "note": "[XS185-97, (E)-4-(dimethylamino)-1-(6-(5-methylthiophene-2-carbonyl)-2,6-diazaspiro[3.4]octan-2-yl)but-2-en-1-one]", "% of OTUB1 modified": 25}, {"smiles": "CN(C)C/C=C/C(=O)N1CC(C(=O)Nc2cc3ccccc3s2)C1", "note": "[XS185-90, (E)-N-(benzo[b]thiophen-2-yl)-1-(4-(dimethylamino)but-2-enoyl)azetidine-3-carboxamide]", "% of OTUB1 modified": 60}, {"smiles": "Cc1ccc(NC(=O)C2CC3CCC(C2)N3C(=O)/C=C/CN(C)C)s1", "note": "(centres unmarked) [XS209-122, (E)-8-(4-(dimethylamino)but-2-enoyl)-N-(5-methylthiophen-2-yl)-8-azabicyclo[3.2.1]octane-3-carboxamide]", "% of OTUB1 modified": 2}, {"smiles": "Cc1ccc(N2CC3CCC(C2=O)N3C(=O)/C=C/CN(C)C)s1", "note": "(centres unmarked) [XS185-75, (E)-8-(4-(dimethylamino)but-2-enoyl)-3-(5-methylthiophen-2-yl)-3,8-diazabicyclo[3.2.1]octan-2-one]", "% of OTUB1 modified": 98}, {"smiles": "COc1ccc2c(c1)CN(C(=O)/C=C/CN(C)C)C2", "note": "[XS209-25, (E)-4-(dimethylamino)-1-(5-methoxyisoindolin-2-yl)but-2-en-1-one]", "% of OTUB1 modified": 5}, {"smiles": "C=CC(=O)N1CCC(=O)N(c2cccc(C)c2)CC1", "note": "[XS165-53, 1-acryloyl-4-(m-tolyl)-1,4-diazepan-5-one]", "% of OTUB1 modified": 5}, {"smiles": "CN(C)C/C=C/C(=O)N1CC(NC(=O)c2cc3ccccc3s2)C1", "note": "[XS224-154, (E)-N-(1-(4-(dimethylamino)but-2-enoyl)azetidin-3-yl)benzo[b]thiophene-2-carboxamide]", "% of OTUB1 modified": 80}, {"smiles": "Cc1ccc(C(=O)NCC2CCN2C(=O)/C=C/CN(C)C)s1", "note": "(centres unmarked) [XS190-127, (E)-N-((1-(4-(dimethylamino)but-2-enoyl)azetidin-2-yl)methyl)-5-methylthiophene-2-carboxamide]", "% of OTUB1 modified": 15}, {"smiles": "Cc1ccc(C(=O)N2CC(NC(=O)/C=C/CN(C)C)C2)s1", "note": "[XS224-143, (E)-4-(dimethylamino)-N-(1-(5-methylthiophene-2-carbonyl)azetidin-3-yl)but-2-enamide]", "% of OTUB1 modified": 7}, {"smiles": "Cc1ccc(C(=O)N2CC3CC(C2)N3C(=O)C#CCN(C)C)s1", "note": "[XS209-26, 4-(dimethylamino)-1-(3-(5-methylthiophene-2-carbonyl)-3,6-diazabicyclo[3.1.1]heptan-6-yl)but-2-yn-1-one]", "% of OTUB1 modified": 98}, {"smiles": "CN(C)CC#CC(=O)N1CC(C(=O)Nc2csc3ccccc23)C1", "note": "[XS224-118, N-(benzo[b]thiophen-3-yl)-1-(4-(dimethylamino)but-2-ynoyl)azetidine-3-carboxamide]", "% of OTUB1 modified": 10}, {"smiles": "CN(C)C/C=C/C(=O)N1C2CC1CN(C(=O)c1ccc(N3CCN(C)CC3)s1)C2", "note": "[XS209-185, (E)-4-(dimethylamino)-1-(3-(5-(4-methylpiperazin-1-yl)thiophene-2-carbonyl)-3,6-diazabicyclo[3.1.1]heptan-6-yl)but-2-en-1-one]", "% of OTUB1 modified": 85}, {"smiles": "CC(C)c1ccc(N2CCN(C(=O)/C=C/CN(C)C)CC2=O)s1", "note": "[XS175-64, (E)-4-(4-(dimethylamino)but-2-enoyl)-1-(5-isopropylthiophen-2-yl)piperazin-2-one]", "% of OTUB1 modified": 95}, {"smiles": "C=CC(=O)N1CC2CCC(C1)N2c1cccc(C)c1", "note": "[XS165-54, 1-(8-(m-tolyl)-3,8-diazabicyclo[3.2.1]octan-3-yl)prop-2-en-1-one]", "% of OTUB1 modified": 1}, {"smiles": "Cc1ccc(C(=O)N2CCN(C(=O)/C=C/CN(C)C)CC2)s1", "note": "[XS185-64, (E)-4-(dimethylamino)-1-(4-(5-methylthiophene-2-carbonyl)piperazin-1-yl)but-2-en-1-one]", "% of OTUB1 modified": 20}, {"smiles": "CC(=O)OCC#Cc1ccc(C(=O)N2CC3CC(C2)N3C(=O)/C=C/CN(C)C)s1", "note": "[XS197-96, (E)-3-(5-(6-(4-(dimethylamino)but-2-enoyl)-3,6-diazabicyclo[3.1.1]heptane-3-carbonyl)thiophen-2-yl)prop-2-yn-1-yl acetate]", "% of OTUB1 modified": 45}, {"smiles": "CN(C)C/C=C/C(=O)N1CCN(c2cc3c(s2)CCCC3)C(=O)C1", "note": "[XS175-186, (E)-4-(4-(dimethylamino)but-2-enoyl)-1-(4,5,6,7-tetrahydrobenzo[b]thiophen-2-yl)piperazin-2-one]", "% of OTUB1 modified": 100}, {"smiles": "Cc1ccc(CN2CC3CC(C2)N3C(=O)/C=C/CN(C)C)s1", "note": "[XS190-158, (E)-4-(dimethylamino)-1-(3-((5-methylthiophen-2-yl)methyl)-3,6-diazabicyclo[3.1.1]heptan-6-yl)but-2-en-1-one]", "% of OTUB1 modified": 8}, {"smiles": "CN(C)C/C=C/C(=O)N1CCN(c2cc3ccccc3s2)C(=O)C1", "note": "[XS175-179, (E)-1-(benzo[b]thiophen-2-yl)-4-(4-(dimethylamino)but-2-enoyl)piperazin-2-one]", "% of OTUB1 modified": 100}, {"smiles": "Cc1ccc(N2CCN(C(=O)/C=C/CN(C)C)CC2)s1", "note": "[XS165-172, (E)-4-(dimethylamino)-1-(4-(5-methylthiophen-2-yl)piperazin-1-yl)but-2-en-1-one]", "% of OTUB1 modified": "<1"}, {"smiles": "CN(C)C/C=C/C(=O)N1C2CCC1C(=O)N(C1CCC1)C2", "note": "(centres unmarked) [XS197-70, (E)-3-cyclobutyl-8-(4-(dimethylamino)but-2-enoyl)-3,8-diazabicyclo[3.2.1]octan-2-one]", "% of OTUB1 modified": 75}, {"smiles": "Cc1ccc(N2CC3CCC(C2=O)N3C(=O)C#CC(C)(C)N(C)C)s1", "note": "(centres unmarked) [XS209-74, 8-(4-(dimethylamino)-4-methylpent-2-ynoyl)-3-(5-methylthiophen-2-yl)-3,8-diazabicyclo[3.2.1]octan-2-one]", "% of OTUB1 modified": 98}, {"smiles": "CN(C)C/C=C/C(=O)N1C2CC1CN(C(=O)C1CCCC1)C2", "note": "[XS190-128, (E)-1-(3-(cyclopentanecarbonyl)-3,6-diazabicyclo[3.1.1]heptan-6-yl)-4-(dimethylamino)but-2-en-1-one]", "% of OTUB1 modified": 47}, {"smiles": "CN(C)C/C=C/C(=O)N1C2CC1CN(C(=O)C1CCC1)C2", "note": "[XS197-38, (E)-1-(3-(cyclobutanecarbonyl)-3,6-diazabicyclo[3.1.1]heptan-6-yl)-4-(dimethylamino)but-2-en-1-one]", "% of OTUB1 modified": 43}, {"smiles": "Cc1ccc(NC(=O)C2CCCCN2C(=O)/C=C/CN(C)C)s1", "note": "(centres unmarked) [XS175-148, (E)-1-(4-(dimethylamino)but-2-enoyl)-N-(5-methylthiophen-2-yl)piperidine-2-carboxamide]", "% of OTUB1 modified": 20}, {"smiles": "CC(=O)N1CCN(c2ccc(C(=O)N3CC4CC(C3)N4C(=O)/C=C/CN(C)C)s2)CC1", "note": "[XS209-184, (E)-1-(3-(5-(4-acetylpiperazin-1-yl)thiophene-2-carbonyl)-3,6-diazabicyclo[3.1.1]heptan-6-yl)-4-(dimethylamino)but-2-en-1-one]", "% of OTUB1 modified": 80}, {"smiles": "CN(C)C/C=C/C(=O)N1C2CCC1C(=O)N(C)C2", "note": "(centres unmarked) [XS197-4, (E)-8-(4-(dimethylamino)but-2-enoyl)-3-methyl-3,8-diazabicyclo[3.2.1]octan-2-one]", "% of OTUB1 modified": 75}, {"smiles": "CC(=O)NCc1ccc(C(=O)N2CC3CC(C2)N3C(=O)/C=C/CN(C)C)s1", "note": "[XS190-130, (E)-N-((5-(6-(4-(dimethylamino)but-2-enoyl)-3,6-diazabicyclo[3.1.1]heptane-3-carbonyl)thiophen-2-yl)methyl)acetamide]", "% of OTUB1 modified": 53}, {"smiles": "Cc1ccc(C(=O)NC2CC3CCC(C2)N3C(=O)/C=C/CN(C)C)s1", "note": "(centres unmarked) [XS209-139, (E)-N-(8-(4-(dimethylamino)but-2-enoyl)-8-azabicyclo[3.2.1]octan-3-yl)-5-methylthiophene-2-carboxamide]", "% of OTUB1 modified": 2}, {"smiles": "CC(=O)N1CCc2sc(N3CC4CCC(C3=O)N4C(=O)/C=C/CN(C)C)cc2C1", "note": "(centres unmarked) [XS190-70, (E)-3-(5-acetyl-4,5,6,7-tetrahydrothieno[3,2-c]pyridin-2-yl)-8-(4-(dimethylamino)but-2-enoyl)-3,8-diazabicyclo[3.2.1]octan-2-one]", "% of OTUB1 modified": 97}, {"smiles": "Cc1csc(N2CCN(C(=O)/C=C/CN(C)C)CC2=O)c1", "note": "[XS175-46, (E)-4-(4-(dimethylamino)but-2-enoyl)-1-(4-methylthiophen-2-yl)piperazin-2-one]", "% of OTUB1 modified": 90}, {"smiles": "CC(=O)N1CCC2(CCC(C(=O)N3CC4CC(C3)N4C(=O)/C=C/CN(C)C)CC2)C1", "note": "(centres unmarked) [XS209-53, (E)-1-(3-(2-acetyl-2-azaspiro[4.5]decane-8-carbonyl)-3,6-diazabicyclo[3.1.1]heptan-6-yl)-4-(dimethylamino)but-2-en-1-one]", "% of OTUB1 modified": 40}, {"smiles": "CN(C)C/C=C/C(=O)N1C2CCC1C(=O)N(C1CCCC1)C2", "note": "(centres unmarked) [XS190-144, (E)-3-cyclopentyl-8-(4-(dimethylamino)but-2-enoyl)-3,8-diazabicyclo[3.2.1]octan-2-one]", "% of OTUB1 modified": 80}, {"smiles": "CN(C)C/C=C/C(=O)N1C2CC1CN(C(=O)c1csc3c1CCCC3)C2", "note": "[XS190-49, (E)-4-(dimethylamino)-1-(3-(4,5,6,7-tetrahydrobenzo[b]thiophene-3-carbonyl)-3,6-diazabicyclo[3.1.1]heptan-6-yl)but-2-en-1-one]", "% of OTUB1 modified": 70}]}]}
